Where “and” joins values, the source holds several entries; their conditions need not be identical. Equal entries are not always repeated. Where two headings read alike, the source gives them in different places.
Columns and labels:
CDK7 = conditions: cited from earlier work
[1] = design: method as in ref IB; conditions: dog microsomes; ref IB; cited from earlier work
[2] = design: method as in ref IB; conditions: ref IB, cited from earlier work
[3] = design: method as in ref IB; conditions: ref IB, cited from earlier work; remark: listed apart in the source
[4] = system: HR+/HER2− advanced breast cancer; assay: Module 2A anti-tumor activity (RECIST V1.1, PFS, ctDNA subgroups); format: in vivo, human
Experimental: A single-arm, ascending-dose study was conducted in 2 cohorts to explore the recommended dose of samuraciclib and fulvestrant in HR+/HER2− advanced breast cancer patients who had previously received, and become resistant to, a CDK4/6 inhibitor. Female patients with histologically confirmed diagnosis of breast cancer, evidence of metastatic or locally advanced disease, and documented ER+ and/or PgR+ and HER2- tumor status treated with an AI in combination with a CDK4/6i before study entry were eligible. In each cohort the dose of fulvestrant was 500 mg every 28 ± 2 days, with an additional 500 mg dose given 14 ± 2 days after the first dose. Cohort 1 tested samuraciclib 240 mg OD continuous dosing. If the DLT stopping criteria were not met, Cohort 2 commenced enrollment at the Module 1A MTD. Patients underwent regular safety monitoring and 8-week scans reported using RECIST V1.1[32].
Per-protocol ctDNA samples were taken in Module 1B-1 at screening, C1D1, C2D1 and on D1 of alternating cycles from Cycle 3; in Module 2A at screening, C1D1 and at either C2D1 (240 mg) or C2D15 (360 mg) for mutational analysis[24],[33], (Supplementary Information). pPolII in lymphocytes and pPolII and pCDK1/2/3 in core needle tissue samples from patients recruited to the paired biopsy cohort were evaluated for on-target pharmacodynamic analyses. […]
(§1) treatment RECIST assessment. […]
(§2) number of patients in the particular analysis population. Duration of response (DoR) was defined as the time from documentation of tumor response to disease progression. Progression-free survival (PFS) was […]
(§3) cause, whichever occurred first. Efficacy results were summarized descriptively and Kaplan -Meier plots provided where appropriate. […]

cytochrome P450 enzymes = system: cytochrome P450 enzymes; design: method as in ref IB; conditions: followed by 3A4 and a small contribution by 2C19; ref IB; cited from earlier work
[5] = design: method as in ref IB; conditions: ref IB; cited from earlier work
dog = system: dog; design: method as in ref IB; conditions: oral 5, 15, and 20 mg/kg, ref IB; cited from earlier work
advanced TNBC = assay: Module 1B-1 anti-tumor activity (RECIST V1.1); format: in vivo, human
Experimental: A single arm expansion was conducted to refine the safety, tolerability, PK, and pharmacodynamic profiles of samuraciclib monotherapy (360 mg OD) in male or female patients with advanced TNBC. Patients with histological, radiological or cytological confirmation of metastasis or locally advanced TNBC not considered to be appropriate for further standard treatment, who had received at least 1 line of systemic anti-cancer therapy, and measurable disease according to the RECIST V1.1, were eligible.
Patients underwent regular safety monitoring and 8-week scans reported using RECIST V1.1. […]
as §1, §2, §3

[6] = Module 2A N = 25, + fulvestrant
[7] = Module 2A, 25 evaluable, + fulvestrant
[8] = Module 2A, Liver metastases (N = 14)

Q: With `CC(C)c1cnn2c(NCc3ccccc3)cc(NC[C@H]3CCNC[C@@H]3O)nc12` [samuraciclib, Samuraciclib] as the molecule, how does the “Selectivity over the next most sensitive kinase” value (CDK7) read?
A: The value was 17 fold.

Q: And the Intrinsic clearance [1]?
A: The Intrinsic clearance was “intermediate”.

Q: And the Oral bioavailability ([2]; rat)?
A: The Oral bioavailability was “good oral bioavailability”.

Q: What about the “Apparent elimination half-life (T½)” value ([2]; rats) of the same molecule?
A: Its value is 4.8 h.

Q: What about the Plasma clearance ([2]; rats) of the same molecule?
A: Its Plasma clearance is “high”.

Q: And the Volume of distribution ([2]; rats)?
A: Its Volume of distribution is “high volume of distribution”.

Q: What about the Oral bioavailability ([3]; dog) of the same molecule?
A: The Oral bioavailability was “good oral bioavailability”.

Q: And the “Apparent elimination half-life (T½)” value ([3]; dogs)?
A: The value was 9.5 h.

Q: And the Plasma clearance ([3]; dogs)?
A: The Plasma clearance was “high”.

Q: What about the Volume of distribution ([3]; dogs) of the same molecule?
A: Its Volume of distribution is “high volume of distribution”.

Q: And the “Patients with PR persisting ≥24 weeks” value ([4]; Module 2A)?
A: The value was 2 patients.

Q: What about the “Patients with SD persisting ≥24 weeks” value ([4]; Module 2A) of the same molecule?
A: Its value is 7 patients.

Q: And the “Progression-free survival, median (95% confidence interval)” value ([4]; Module 2A ITT N = 31, + fulvestrant)?
A: The value was 3.7 months and 3.7 (1.8, 7.4) months.

Q: What about the “Best objective response: Complete response” value [4, 6] of the same molecule?
A: The value was 0 n (%).

Q: And the “Best objective response: Partial response” value [4, 6]?
A: Its value is 3 (12.0) n (%).

Q: What about the “Best objective response: Progressive disease” value [4, 6] of the same molecule?
A: The value was 9 (36.0) n (%).

Q: What about the “Best objective response: Stable disease” value [4, 6] of the same molecule?
A: Its value is 13 (52.0) n (%).

Q: And the “Clinical benefit rate at 24 weeks” value [4, 6]?
A: The value was 9 (36.0) n (%).

Q: And the Objective response rate [4, 6]?
A: Its Objective response rate is 3 (12.0) n (%).

Q: What about the “Clinical benefit rate at 24 weeks, overall” value ([4]; Module 2A, 9/25, + fulvestrant) of the same molecule?
A: Its value is 36.0%.

Q: What about the “Best RECIST response PR” value [4, 7] of the same molecule?
A: Its value is 12.0%.

Q: What about the “Best RECIST response SD” value [4, 7] of the same molecule?
A: Its value is 52.0%.

Q: What about the “Patients achieving PR” value ([4]; Module 2A, + fulvestrant) of the same molecule?
A: Its value is 3 patients.

Q: What about the “Clinical benefit rate at 24 weeks” value [4, 8] of the same molecule?
A: The value was 3 (21.4) n (%).

Q: And the “Progression-free survival, median (95% CI)” value [4, 8]?
A: The value was 2.8 months and 2.8 (1.8, 7.4) months.

Q: And the “Clinical benefit rate at 24 weeks” value ([4]; Module 2A, No TP53 mutation (N = 19))?
A: Its value is 9 (47.4) n (%).

Q: And the “Progression-free survival, median (95% CI)” value ([4]; Module 2A, No TP53 mutation (N = 20))?
A: The value was 7.4 months and 7.4 (3.7, NC) months.

Q: And the “Clinical benefit rate at 24 weeks” value ([4]; Module 2A, No liver metastases (N = 11))?
A: The value was 6 (54.5) n (%).

Q: And the “Progression-free survival, median (95% CI)” value ([4]; Module 2A, No liver metastases (N = 17))?
A: Its value is 13.8 months and 13.8 (7.4, NC) months.

Q: What about the “Clinical benefit rate at 24 weeks” value ([4]; Module 2A, TP53 mutation (N = 6)) of the same molecule?
A: Its value is 0 n (%).

Q: What about the “Progression-free survival, median (95% CI)” value ([4]; Module 2A, TP53 mutation (N = 7)) of the same molecule?
A: The value was 1.8 months and 1.8 (1.7, NC) months.

Q: And the “Clinical benefit rate at 24 weeks” value ([4]; Module 2A, TP53 mutation group n = 6)?
A: Its value is 0%.

Q: And the “Clinical benefit rate at 24 weeks” value ([4]; Module 2A, liver metastases, 3/14)?
A: Its value is 21.4%.

Q: What about the “Clinical benefit rate at 24 weeks” value ([4]; Module 2A, no detectable TP53 mutation, 9/19) of the same molecule?
A: The value was 47.4%.

Q: And the “Clinical benefit rate at 24 weeks” value ([4]; Module 2A, no liver metastases, 6/11)?
A: Its value is 54.5%.

Q: What about the “Hazard ratio for PFS, no detectable liver metastases” value ([4]; Module 2A, 95% CI: 0.04–0.59) of the same molecule?
A: The value was 0.16.

Q: What about the “Hazard ratio for PFS, absence of TP53 mutation” value ([4]; Module 2A, 95% CI: 0.05-0.45) of the same molecule?
A: Its value is 0.14.

Q: What about the CYP mediated clearance (cytochrome P450 enzymes) of the same molecule?
A: Its CYP mediated clearance is “mainly occurs via CYP2D6”.

Q: And the Solubility [5]?
A: The Solubility was “pH-dependent solubility”.

Q: What about the “Haemodynamic parameters, ECG parameters, body temperature” value (dog) of the same molecule?
A: The value was “no effect”.

Q: And the “Duration of response of the one PR” value (advanced TNBC; Module 1B-1, 360 mg OD)?
A: Its value is 337 days.

Q: What about the “Clinical benefit rate at 24 weeks” value (advanced TNBC; Module 1B-1, 4/20) of the same molecule?
A: The value was 20.0%.

Q: And the “Best overall response progressive disease” value (advanced TNBC; Module 1B-1, 20 evaluable)?
A: Its value is 40.0%.

Q: And the “Best overall response stable disease” value (advanced TNBC; Module 1B-1, 20 evaluable)?
A: The value was 55.0%.

Q: And the Objective response rate (advanced TNBC; Module 1B-1, 20 evaluable)?
A: Its Objective response rate is 5.0%.

Q: What about the “Progression-free survival, median (95% confidence interval)” value (advanced TNBC; Module 1B-1 ITT N = 23) of the same molecule?
A: Its value is 2.4 (1.9, 3.8) months.

Q: What about the “Best objective response: Complete response” value (advanced TNBC; Module 1B-1 N = 20) of the same molecule?
A: The value was 0 n (%).

Q: What about the “Best objective response: Partial response” value (advanced TNBC; Module 1B-1 N = 20) of the same molecule?
A: Its value is 1 (5.0) n (%).

Q: What about the “Best objective response: Progressive disease” value (advanced TNBC; Module 1B-1 N = 20) of the same molecule?
A: Its value is 8 (40.0) n (%).

Q: And the “Best objective response: Stable disease” value (advanced TNBC; Module 1B-1 N = 20)?
A: The value was 11 (55.0) n (%).

Q: What about the Objective response rate (advanced TNBC; Module 1B-1 N = 20) of the same molecule?
A: Its Objective response rate is 1 (5.0) n (%).

From PMC10366102, “Dose escalation and expansion cohorts in patients with advanced breast cancer in a Phase I study of the CDK7-inhibitor samuraciclib” (Nature Communications, 2023)
